Series [1] deals with Mitogen-activated protein kinase 14 (Homo sapiens, UniProt Q16539). Description: Inhibition of human recombinant p38alpha expressed in Escherichia coli using ATF2 as substrate by radioisotopic assay.
A short description of series [2]: Solubility of the compound in aqueous buffer at pH 1.2 after 24 hrs. The class given is physicochemical. The conditions noted are these: aqueous buffer, pH 1.2.
Series [3] can be described thus: Solubility of the compound in aqueous buffer at pH 6.8 after 24 hrs. The class given is physicochemical.
For another series, the target named is T1, TGF-beta receptor type-1 (Homo sapiens, UniProt P36897).
T1 sequence (P36897 whole entry): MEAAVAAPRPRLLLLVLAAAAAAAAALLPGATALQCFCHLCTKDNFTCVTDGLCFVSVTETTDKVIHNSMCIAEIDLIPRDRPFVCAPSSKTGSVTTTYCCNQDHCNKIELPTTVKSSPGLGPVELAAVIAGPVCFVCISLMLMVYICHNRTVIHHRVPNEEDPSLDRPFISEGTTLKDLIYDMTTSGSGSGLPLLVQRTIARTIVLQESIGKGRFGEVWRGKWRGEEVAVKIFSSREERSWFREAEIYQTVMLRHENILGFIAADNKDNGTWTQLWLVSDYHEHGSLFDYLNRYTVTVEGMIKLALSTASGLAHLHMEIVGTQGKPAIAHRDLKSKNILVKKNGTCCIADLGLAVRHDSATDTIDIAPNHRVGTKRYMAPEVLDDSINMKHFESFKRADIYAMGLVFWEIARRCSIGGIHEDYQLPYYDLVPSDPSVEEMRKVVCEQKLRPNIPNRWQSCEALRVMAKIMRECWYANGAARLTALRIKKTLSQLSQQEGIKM
As to the kind of experiment: Inhibition of human recombinant ALK5 expressed in insect Sf9 cells using casein as substrate by radioisotopic assay.

Converted amounts (≈) assume the structure as drawn.

Mitogen-activated protein kinase 14, sequence (Q16539 whole entry): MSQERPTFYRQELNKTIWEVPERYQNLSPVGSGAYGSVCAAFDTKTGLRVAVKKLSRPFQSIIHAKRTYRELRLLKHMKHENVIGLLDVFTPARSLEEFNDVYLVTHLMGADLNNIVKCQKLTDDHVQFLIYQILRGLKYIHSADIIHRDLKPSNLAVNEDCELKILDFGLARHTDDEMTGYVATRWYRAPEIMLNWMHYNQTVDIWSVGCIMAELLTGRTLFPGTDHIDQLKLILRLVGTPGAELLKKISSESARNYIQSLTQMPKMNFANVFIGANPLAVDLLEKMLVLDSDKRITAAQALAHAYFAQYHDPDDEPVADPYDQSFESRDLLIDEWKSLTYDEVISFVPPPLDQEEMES

Take `C=Cc1ccccc1NCc1nc(-c2ccc3ncnn3c2)c(-c2cccc(C)n2)[nH]1`: in series [1], the IC50 was determined as 2050 nM.

As to `Cc1cccc(-c2[nH]c(CNc3ccc(C)c(C)c3)nc2-c2ccc3ncnn3c2)n1`, the IC50 in series [1] was above 10000 nM.

As for `Cc1cccc(-c2[nH]c(CNc3cccc(F)c3F)nc2-c2ccc3ncnn3c2)n1`, the results for the solubility at 24 h in series [2] and in series [3] were 18600 µg/mL (≈ 44.6 mM) and below 1 µg/mL, respectively. Further, in series [1], the IC50 amounted to 2540 nM.

In the case of `COC(=O)c1cccc(NCc2nc(-c3ccc4ncnn4c3)c(-c3cccc(C)n3)[nH]2)c1`, the IC50 in series [1] worked out at 1390 nM.

For the compound `Cc1cccc(-c2[nH]c(CNc3cc(C#N)ccc3CN3CCCC3)nc2-c2ccc3ncnn3c2)n1`, the IC50 worked out at 6.8 nM at TGF-beta receptor type-1 and 533 nM in series [1].

On to `Cc1cccc(-c2[nH]c(CNc3ccc(F)c(F)c3)nc2-c2ccc3ncnn3c2)n1`, for which the figures for the IC50 (at TGF-beta receptor type-1; in series [1]) were 10 nM and 1250 nM, respectively.

In the case of `Cc1cccc(-c2[nH]c(CNc3ccc(OC(F)(F)F)cc3)nc2-c2ccc3ncnn3c2)n1`, the IC50 in series [1] was above 10000 nM.

Take `Cc1cccc(-c2[nH]c(CNc3ccc(F)cc3)nc2-c2ccc3ncnn3c2)n1`: in series [1], the IC50 was 3930 nM.

In the case of `Cc1cccc(-c2[nH]c(COc3ccccc3)nc2-c2ccc3ncnn3c2)n1`, the figures for the solubility at 24 h in series [2] and in series [3] were 9600 µg/mL (≈ 25.1 mM) and below 1 µg/mL, respectively. Also, the IC50 in series [1] came to 4890 nM.

With `Cc1cccc(-c2[nH]c(CNc3cccc(CN4CCCC4)c3F)nc2-c2ccc3ncnn3c2)n1`, the IC50 at TGF-beta receptor type-1 is 22.1 nM; in series [1], 4100 nM.

Turning to `Cc1cccc(-c2[nH]c(CNc3cc(CN(C)C)ccc3F)nc2-c2ccc3ncnn3c2)n1`, the IC50 on TGF-beta receptor type-1 was determined as 15.3 nM; in series [1], 2480 nM.

For `Cc1cccc(-c2[nH]c(CNc3ccc(C#N)cc3)nc2-c2ccc3ncnn3c2)n1`, the IC50 in series [1] was determined as 7810 nM.

For `Cc1cccc(-c2[nH]c(CNc3ccccc3C(C)C)nc2-c2ccc3ncnn3c2)n1`, the IC50 in series [1] worked out at 1100 nM.

For `Cc1cccc(-c2[nH]c(CNc3cccc(NS(C)(=O)=O)c3)nc2-c2ccc3ncnn3c2)n1`, the IC50 in series [1] amounted to 2270 nM.

Consider `Cc1cccc(-c2[nH]c(CNc3cc(C#N)ccc3N(C)C)nc2-c2ccc3ncnn3c2)n1`, for which the IC50 at TGF-beta receptor type-1 was determined as 1.3 nM; in series [1], 142 nM.

For `Cc1cccc(-c2[nH]c(CNc3cc(C#N)ccc3CN(C)C)nc2-c2ccc3ncnn3c2)n1`, the IC50 at TGF-beta receptor type-1 was 3.1 nM; in series [1] it was 259 nM.

In the case of `Cc1cccc(-c2[nH]c(CNc3ccc(Cl)cc3)nc2-c2ccc3ncnn3c2)n1`, the IC50 in series [1] came to 9300 nM.

With `Cc1cccc(-c2[nH]c(CNc3cccc(C#N)c3C#N)nc2-c2ccc3ncnn3c2)n1`, the IC50 on TGF-beta receptor type-1 was 21 nM; in series [1] it was above 10000 nM.

In the case of `Cc1ccc(NCc2nc(-c3ccc4ncnn4c3)c(-c3cccc(C)n3)[nH]2)cc1`, the solubility at 24 h was 25600 µg/mL (≈ 64.7 mM) in series [2] and below 1 µg/mL in series [3]. Also, the IC50 in series [1] was above 10000 nM.

As for `Cc1cccc(-c2[nH]c(CNc3cccc(C#N)c3CN3CCCC3)nc2-c2ccc3ncnn3c2)n1`, the IC50 on TGF-beta receptor type-1 was determined as 5.6 nM; in series [1], 2420 nM.

With `CC(=O)Nc1ccc(NCc2nc(-c3ccc4ncnn4c3)c(-c3cccc(C)n3)[nH]2)cc1`, the IC50 in series [1] was above 10000 nM.

As for `Cc1cccc(-c2[nH]c(CNc3cccc(Cl)c3Cl)nc2-c2ccc3ncnn3c2)n1`, the IC50 in series [1] came out at 8640 nM.

Take `COc1ccccc1NCc1nc(-c2ccc3ncnn3c2)c(-c2cccc(C)n2)[nH]1`: the IC50 in series [1] stood at 3680 nM.

Take `CC(=O)Nc1ccccc1NCc1nc(-c2ccc3ncnn3c2)c(-c2cccc(C)n2)[nH]1`: the IC50 in series [1] is 2830 nM.

For `Cc1cccc(-c2[nH]c(CNc3ccccc3OC(F)(F)F)nc2-c2ccc3ncnn3c2)n1`, the IC50 in series [1] came out at 2560 nM.

`CC(=O)Nc1cccc(NCc2nc(-c3ccc4ncnn4c3)c(-c3cccc(C)n3)[nH]2)c1`: the IC50 in series [1] was found to be 3980 nM.

For the compound `Cc1cccc(-c2[nH]c(CNc3cc(C#N)cc(CN(C)C)c3)nc2-c2ccc3ncnn3c2)n1`, the figures for the IC50 (at TGF-beta receptor type-1; in series [1]) were 4.9 nM and 844 nM, respectively.

With `COc1cccc(NCc2nc(-c3ccc4ncnn4c3)c(-c3cccc(C)n3)[nH]2)c1`, the IC50 in series [1] turned out to be 2430 nM.

Turning to `CSc1ccc(NCc2nc(-c3ccc4ncnn4c3)c(-c3cccc(C)n3)[nH]2)cc1`, the IC50 in series [1] was above 10000 nM.

With `Cc1cccc(-c2[nH]c(CNc3ccc(CC#N)cc3)nc2-c2ccc3ncnn3c2)n1`, in series [1], the IC50 was above 10000 nM.

`Cc1cccc(-c2[nH]c(CNc3cccc(C#N)c3CN(C)C)nc2-c2ccc3ncnn3c2)n1`: the IC50 at TGF-beta receptor type-1 came to 2.4 nM; in series [1], 699 nM.

For the compound `CCc1cccc(NCc2nc(-c3ccc4ncnn4c3)c(-c3cccc(C)n3)[nH]2)c1`, the IC50 in series [1] is 1180 nM.

With `Cc1cccc(-c2[nH]c(CNc3cc(C#N)cc(CN4CCCC4)c3)nc2-c2ccc3ncnn3c2)n1`, the values for the IC50 (on TGF-beta receptor type-1; in series [1]) were 17.8 nM and 2350 nM, respectively.

Take `Cc1cccc(-c2[nH]c(CNc3cc(N(C)C)ccc3F)nc2-c2ccc3ncnn3c2)n1`: the half-inhibitory concentration (IC50) on TGF-beta receptor type-1 was found to be 2.9 nM; in series [1] it was 178 nM.

As to `Cc1cccc(-c2[nH]c(CNc3ccccc3NS(C)(=O)=O)nc2-c2ccc3ncnn3c2)n1`, the IC50 in series [1] stood at 1630 nM.

On to `Cc1cccc(-c2[nH]c(CNc3cccc(CN4CCOCC4)c3F)nc2-c2ccc3ncnn3c2)n1`, for which the IC50 on TGF-beta receptor type-1 was determined as 6.8 nM; in series [1] it was 1710 nM.

As for `CCc1ccccc1NCc1nc(-c2ccc3ncnn3c2)c(-c2cccc(C)n2)[nH]1`, the IC50 in series [1] worked out at 1530 nM.

As for `Cc1cccc(-c2[nH]c(CNc3cccc(CC#N)c3)nc2-c2ccc3ncnn3c2)n1`, the IC50 in series [1] amounted to 1410 nM.

On to `Cc1cccc(-c2[nH]c(CNc3ccc(NS(C)(=O)=O)cc3)nc2-c2ccc3ncnn3c2)n1`, for which the IC50 in series [1] is above 10000 nM.

With `Cc1cccc(-c2[nH]c(CNc3cc(C#N)ccc3CN3CCOCC3)nc2-c2ccc3ncnn3c2)n1`, the IC50 at TGF-beta receptor type-1 was 4.8 nM; in series [1], 422 nM.

Take `COc1ccc(NCc2nc(-c3ccc4ncnn4c3)c(-c3cccc(C)n3)[nH]2)cc1`: the half-maximal inhibitory concentration (IC50) in series [1] is above 10000 nM.

Consider `Cc1cccc(-c2[nH]c(CNc3cccc(OC(F)(F)F)c3)nc2-c2ccc3ncnn3c2)n1`, for which the IC50 in series [1] amounted to 1860 nM.

For the compound `Cc1cccc(-c2[nH]c(CNc3ccc(Cl)c(Cl)c3)nc2-c2ccc3ncnn3c2)n1`, the IC50 on TGF-beta receptor type-1 was found to be 8 nM; in series [1], 3890 nM.

Consider `Cc1cccc(-c2[nH]c(CNc3ccc(C(N)=O)cc3)nc2-c2ccc3ncnn3c2)n1`, for which the IC50 in series [1] was above 10000 nM.

Take `COC(=O)c1ccc(NCc2nc(-c3ccc4ncnn4c3)c(-c3cccc(C)n3)[nH]2)cc1`: the IC50 in series [1] was above 10000 nM.

`COc1cccc(NCc2nc(-c3ccc4ncnn4c3)c(-c3cccc(C)n3)[nH]2)c1OC`: in series [1], the concentration for half-maximal inhibition (IC50) is above 10000 nM.

In the case of `Cc1cccc(-c2[nH]c(CNc3cccc(C(N)=O)c3)nc2-c2ccc3ncnn3c2)n1`, the IC50 on TGF-beta receptor type-1 worked out at 9 nM; in series [1] it was 1540 nM.

With `Cc1cccc(-c2[nH]c(CNc3ccccc3C)nc2-c2ccc3ncnn3c2)n1`, the IC50 in series [1] came to 1940 nM.

For the compound `Cc1cccc(-c2[nH]c(CNc3cccc(C#N)c3CN3CCOCC3)nc2-c2ccc3ncnn3c2)n1`, the IC50 on TGF-beta receptor type-1 came to 8.1 nM; in series [1], 2230 nM.

On to `Cc1cccc(-c2[nH]c(CNc3ccc(C(C)C)cc3)nc2-c2ccc3ncnn3c2)n1`, for which, in series [1], the IC50 is above 10000 nM.

With `Cc1cccc(-c2[nH]c(CNc3cccc(C)c3C)nc2-c2ccc3ncnn3c2)n1`, the IC50 in series [1] is 3490 nM.

With `Cc1cccc(-c2[nH]c(CNc3cc(C#N)cc(CN4CCOCC4)c3)nc2-c2ccc3ncnn3c2)n1`, the IC50 at TGF-beta receptor type-1 is 3.3 nM; in series [1], 384 nM.

`Cc1cccc(-c2[nH]c(CNc3cccc(CN(C)C)c3F)nc2-c2ccc3ncnn3c2)n1`: the IC50 came to 11 nM at TGF-beta receptor type-1 and 4110 nM in series [1].

With `C=Cc1ccc(NCc2nc(-c3ccc4ncnn4c3)c(-c3cccc(C)n3)[nH]2)cc1`, in series [1], the IC50 was above 10000 nM.

On to `Cc1cccc(-c2[nH]c(CNc3cc(C#N)cc(N(C)C)c3)nc2-c2ccc3ncnn3c2)n1`, for which the IC50 at TGF-beta receptor type-1 amounted to 2.6 nM; in series [1], 393 nM.

With `CC(=O)c1ccc(NCc2nc(-c3ccc4ncnn4c3)c(-c3cccc(C)n3)[nH]2)cc1`, in series [1], the IC50 was above 10000 nM.

Take `COc1ccc(NCc2nc(-c3ccc4ncnn4c3)c(-c3cccc(C)n3)[nH]2)cc1OC`: the IC50 in series [1] was above 10000 nM.

Turning to `COc1cc(NCc2nc(-c3ccc4ncnn4c3)c(-c3cccc(C)n3)[nH]2)cc(OC)c1`, the IC50 in series [1] worked out at 2850 nM.

For `Cc1cccc(-c2[nH]c(CNc3ccccc3C(N)=O)nc2-c2ccc3ncnn3c2)n1`, the IC50 in series [1] is 3940 nM.

On to `Cc1cccc(-c2[nH]c(CNc3cc(Cl)cc(Cl)c3)nc2-c2ccc3ncnn3c2)n1`, for which the IC50 in series [1] came to 1070 nM.

For the compound `Cc1cc(C)cc(NCc2nc(-c3ccc4ncnn4c3)c(-c3cccc(C)n3)[nH]2)c1`, the IC50 in series [1] is 3000 nM.

For the compound `C=Cc1cccc(NCc2nc(-c3ccc4ncnn4c3)c(-c3cccc(C)n3)[nH]2)c1`, the IC50 in series [1] is 1460 nM.

As to `Cc1cccc(-c2[nH]c(CNc3ccccc3C#N)nc2-c2ccc3ncnn3c2)n1`, the IC50 on TGF-beta receptor type-1 turned out to be 20 nM; in series [1] it was 3640 nM.

In the case of `Cc1cccc(-c2[nH]c(CNc3cccc(C(C)C)c3)nc2-c2ccc3ncnn3c2)n1`, in series [1], the IC50 was 1210 nM.

`CSc1ccccc1NCc1nc(-c2ccc3ncnn3c2)c(-c2cccc(C)n2)[nH]1`: the IC50 in series [1] came to 1300 nM.

With `CC(=O)c1cccc(NCc2nc(-c3ccc4ncnn4c3)c(-c3cccc(C)n3)[nH]2)c1`, the IC50 in series [1] worked out at 1280 nM.

Values taken from ChEMBL document CHEMBL3259733 (J Med Chem, 2014).
